Laboratory results taken from PubChem BioAssay (NCI).
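These data come from cells grown in 96-well plates and exposed to compound for 48 hours at five concentrations. Abbreviation: GI50, concentration required for 50% inhibition of growth. TGI is the concentration that stops growth completely.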

Experiments:
Assay in all cases: inhibition of tumour cell growth, NCI panel, 48 h
[1] = system: UO-31 renal
[2] = system: SW-620 colon
[3] = system: IGROV1 ovarian
[4] = system: RPMI-8226 leukemia
[5] = system: LOX IMVI melanoma
[6] = system: HOP-62 NSCLC
[7] = system: HOP-92 NSCLC
[8] = system: OVCAR-3 ovarian
[9] = system: MOLT-4 leukemia
[10] = system: PC-3 prostate

SMILES | TGI [1] | TGI [2] | TGI [3] | TGI [4] | TGI [5] | TGI [6] | TGI [7] | TGI [8] | GI50 [1] | GI50 [2] | GI50 [3] | GI50 [9] | TGI [9] | GI50 [4] | GI50 [5] | GI50 [10] | TGI [10] | GI50 [6] | GI50 [8] | GI50 [7]
CCOC(=O)C1=C(O)CSC1=Nc1ccc(N=C2SCC(O)=C2C(=O)OCC)cc1 | 37.7 µM | 66.6 µM | 60.6 µM | > 100 µM | 32.1 µM | 65.9 µM | 64 µM | > 100 µM | – | – | – | – | – | – | – | – | – | – | – | –
Cc1nc(N=C(N)N)nc2ccc3ccccc3c12 | 8.52 µM | 10.3 µM | 7.87 µM | 7.36 µM | 3.18 µM | 3.6 µM | – | 3.77 µM | 2.14 µM | 0.897 µM | 1.53 µM | 1.37 µM | 3.62 µM | 2.53 µM | 1.57 µM | 1.26 µM | 4.1 µM | 1.25 µM | 1.32 µM | –
COc1ccc(C(=O)Nc2ccccc2C#N)cc1 | – | > 100 µM | > 100 µM | > 100 µM | > 100 µM | > 100 µM | > 100 µM | > 100 µM | – | – | – | – | – | – | – | – | – | – | – | –
CC1(C)CC[C@]2(C(=O)O)CCC3(C)C(=CCC4[C@@]5(C)CC[C@H](OC6OCC(O)C(O)C6OC6OC(CO)C(O)C(O)C6O)C(C)(C)C5CC[C@]43C)C2C1 (stereo partly drawn) | 3.71 µM | 4.03 µM | 5.23 µM | 6.71 µM | 4.18 µM | 4.16 µM | 3.69 µM | 4.39 µM | – | – | – | – | 7.95 µM | – | – | – | – | – | – | –
Fc1cccc(C=NC23CC4CC(CC(C4)C2)C3)c1 | > 100 µM | – | > 100 µM | > 100 µM | > 100 µM | > 100 µM | > 100 µM | > 100 µM | – | – | – | – | > 100 µM | – | – | – | – | – | – | –
CC(=O)[CH-]C(=O)c1ccccc1.CC(=O)[CH-]C(=O)c1ccccc1.[O-]Cc1cccs1.[O-]Cc1cccs1.[Ti+4] | > 100 µM | > 100 µM | > 100 µM | 71.3 µM | 58 µM | > 100 µM | – | > 100 µM | > 100 µM | 49.9 µM | 89.9 µM | > 100 µM | > 100 µM | 27.1 µM | 18.1 µM | – | – | > 100 µM | > 100 µM | –
Clc1ccc(C2=NN(c3ccccc3)C3c4cc(Br)ccc4OCC23)cc1 (stereo not drawn) | > 100 µM | > 100 µM | > 100 µM | > 100 µM | > 100 µM | > 100 µM | > 100 µM | > 100 µM | – | – | – | – | > 100 µM | – | – | – | – | – | – | –
Cc1ccc(NC(=O)CCC(=O)C2CC(=O)CCC2=O)cc1C (stereo not drawn) | > 100 µM | > 100 µM | > 100 µM | – | > 100 µM | > 100 µM | > 100 µM | > 100 µM | – | – | – | – | > 100 µM | – | – | – | – | – | – | –
Nc1ccc(C(=O)O)c2[nH]c3ccccc3c(=O)c12 | > 100 µM | > 100 µM | > 100 µM | > 100 µM | > 100 µM | > 100 µM | > 100 µM | – | – | – | – | – | > 100 µM | – | – | – | – | – | – | –
CCN1CCC(O)(c2ccccc2)C(C(=O)c2ccccc2)C1 (stereo not drawn) | > 70 µM | 38.3 µM | > 100 µM | 33.4 µM | > 31.6 µM | > 100 µM | 36.1 µM | 31.2 µM | – | – | – | – | > 60.2 µM | – | – | – | – | – | – | –
Nc1cc2c3c(cccc3c1)C(=O)N(CCN1CCN(CCN3C(=O)c4cccc5cc(N)cc(c45)C3=O)CC1)C2=O | > 100 µM | > 100 µM | > 100 µM | > 100 µM | – | > 100 µM | > 100 µM | > 100 µM | – | – | – | – | > 100 µM | – | – | – | – | – | – | –
CCOC(=O)C12CN(C34CC5CC(CC(C5)C3)C4)CC(C(=O)OCC)(C1=O)C(c1ccccc1)OC2c1ccccc1 (stereo not drawn) | > 100 µM | > 100 µM | > 100 µM | > 100 µM | > 100 µM | > 100 µM | 9.73 µM | > 100 µM | – | – | – | – | > 100 µM | – | – | – | – | – | – | –
N/C(=N\N=C=C1C(=O)Nc2ccc(F)cc21)NO | – | > 100 µM | > 100 µM | – | > 100 µM | > 100 µM | > 100 µM | > 100 µM | – | – | – | – | > 100 µM | – | – | – | – | – | – | –
Cc1cc(C)c2c(c1C)CN1CN2Cc2c(C)c(C)cc(C)c21 | > 100 µM | > 100 µM | > 100 µM | > 100 µM | > 100 µM | > 100 µM | > 100 µM | > 100 µM | – | – | – | – | > 100 µM | – | – | – | – | – | – | –
CC/C(=C(/CC)c1ccc(OP(=O)([O-])[O-])cc1)c1ccc(OP(=O)([O-])[O-])cc1.N.N.N.N.[Pt+4].[Pt+4] | 25.4 µM | 62.2 µM | 53.6 µM | > 100 µM | 11.9 µM | 13.6 µM | 8.93 µM | 8.89 µM | 4.3 µM | 5.19 µM | 5.36 µM | 1.09 µM | 19.5 µM | 4.19 µM | 2.08 µM | – | – | 1.75 µM | 2.49 µM | 3.43 µM
COC(=O)[C@@]12C3=NO[C@]1(C(=O)OC)C(O[Si](C)(C)C(C)(C)C)C1OC(C)(C)OC1[C@@H]2[C@@H](OCc1ccccc1)CC3 (stereo partly drawn) | > 100 µM | > 100 µM | > 100 µM | > 100 µM | > 100 µM | – | 17.3 µM | > 100 µM | – | – | – | – | > 100 µM | – | – | – | – | – | – | –
COc1cc(C2c3cc4c(cc3[C@@H](OCCN)[C@H]3COC(=O)C23)OCO4)cc(OC)c1O (stereo partly drawn) | 13.6 µM | 2.45 µM | 4.55 µM | – | 0.395 µM | 0.34 µM | 1.43 µM | 3.06 µM | – | – | – | – | 0.733 µM | – | – | – | – | – | – | –
C=C1C(=O)C23C(O)C1CCC2C12CO[C@]3(O)[C@@H](O)C1C(C)(C)CCC2O (stereo partly drawn) | 31.1 µM | 23.8 µM | 20.3 µM | > 100 µM | 31.4 µM | 40.5 µM | 8.99 µM | 30.3 µM | – | – | – | – | > 38.9 µM | – | – | – | – | – | – | –
COC(=O)Oc1nn(C(=O)OC)c(=O)c2ccccc12 (tested in a mixture with another compound) | > 100 µM | > 100 µM | > 100 µM | > 100 µM | > 100 µM | > 100 µM | – | > 100 µM | – | – | – | – | > 100 µM | – | – | – | > 100 µM | – | – | –
CC1=C(C(=O)Nc2cc(F)c(F)cc2F)C(c2cccc([N+](=O)[O-])c2)C(C(=O)Nc2ccccc2C(F)(F)F)=C(C)N1 (stereo not drawn) | 42 µM | 87.1 µM | > 100 µM | 37.4 µM | 39.4 µM | 54.5 µM | 32.3 µM | 41.9 µM | – | – | – | – | 42 µM | – | – | – | – | – | – | –
Cc1ccc(C)c(NC(=O)CCC(=O)CC(=O)C(C)(C)C)c1 | > 100 µM | > 100 µM | > 100 µM | > 100 µM | > 100 µM | > 100 µM | > 100 µM | > 100 µM | – | – | – | – | > 100 µM | – | – | – | – | – | – | –
